Experimental data taken from the NIST ThermoML archive (doi:10.1021/je800999s).

Assay: molar heat capacity at constant pressure; xn = mol fraction of the nth substance listed
Settings: 101 kPa, Liquid, Large sample (1 g) DSC

CN1CCCC1=O [N-methylpyrrolidone] + O
molar heat capacity at constant pressure [J/K/mol]
Settings | x1 = 0.0999 | x1 = 0.1998 | x1 = 0.2984 | x1 = 0.3979 | x1 = 0.4961 | x1 = 0.5981 | x1 = 0.6917 | x1 = 0.799 | x1 = 0.8946 | x1 = 1
303.15 K | 90 | 102 | 113 | 122 | 129 | 137 | 144 | 152 | 158 | 166
308.15 K | 90 | 103 | 114 | 123 | 131 | 138 | 146 | 153 | 160 | 167
313.15 K | 91 | 104 | 115 | 124 | 132 | 140 | 147 | 154 | 161 | 168
318.15 K | 91 | 105 | 116 | 125 | 133 | 141 | 148 | 155 | 162 | 169
323.15 K | 92 | 105 | 118 | 127 | 135 | 142 | 150 | 157 | 164 | 170
328.15 K | 92 | 106 | 119 | 128 | 136 | 144 | 151 | 158 | 165 | 172
333.15 K | 93 | 107 | 120 | 129 | 138 | 145 | 153 | 160 | 166 | 174
338.15 K | 93 | 108 | 121 | 131 | 139 | 147 | 154 | 161 | 168 | 175
343.15 K | 94 | 109 | 122 | 132 | 141 | 149 | 156 | 163 | 169 | 176
348.15 K | 95 | 110 | 123 | 133 | 142 | 150 | 157 | 164 | 170 | 177
353.15 K | 95 | 110 | 124 | 134 | 142 | 151 | 158 | 165 | 170 | 178

O=S1(=O)CCCC1 [sulfolane] + O
molar heat capacity at constant pressure [J/K/mol]
Settings | x1 = 0.0999 | x1 = 0.1998 | x1 = 0.2987 | x1 = 0.3995 | x1 = 0.4945 | x1 = 0.5987 | x1 = 0.6984 | x1 = 0.7904 | x1 = 0.8865 | x1 = 1
303.15 K | 87 | 100 | 112 | 124 | 135 | 145 | 155 | 164 | 173 | 182
308.15 K | 88 | 100 | 113 | 125 | 136 | 147 | 156 | 166 | 175 | 184
313.15 K | 88 | 101 | 114 | 126 | 137 | 148 | 157 | 167 | 176 | 185
318.15 K | 88 | 102 | 114 | 127 | 138 | 149 | 159 | 168 | 177 | 186
323.15 K | 89 | 102 | 115 | 128 | 139 | 150 | 160 | 170 | 179 | 188
328.15 K | 89 | 103 | 116 | 129 | 141 | 152 | 162 | 172 | 181 | 189
333.15 K | 89 | 104 | 117 | 130 | 142 | 153 | 164 | 173 | 183 | 191
338.15 K | 90 | 104 | 118 | 131 | 143 | 155 | 165 | 175 | 184 | 193
343.15 K | 90 | 105 | 119 | 132 | 144 | 156 | 167 | 177 | 186 | 194
348.15 K | 91 | 106 | 120 | 133 | 146 | 158 | 169 | 179 | 188 | 197
353.15 K | 91 | 107 | 121 | 135 | 148 | 160 | 171 | 181 | 191 | 199

COCCOCCOCCOC [2,5,8,11-tetraoxadodecane] + O
molar heat capacity at constant pressure [J/K/mol]
Settings | x1 = 0.0999 | x1 = 0.1997 | x1 = 0.2967 | x1 = 0.3977 | x1 = 0.4983 | x1 = 0.5918 | x1 = 0.6926 | x1 = 0.7941 | x1 = 0.8686 | x1 = 1
303.15 K | 109 | 141 | 171 | 198 | 224 | 250 | 275 | 300 | 328 | 359
308.15 K | 110 | 143 | 173 | 200 | 227 | 253 | 278 | 304 | 332 | 364
313.15 K | 111 | 144 | 174 | 202 | 228 | 254 | 279 | 306 | 334 | 366
318.15 K | 112 | 145 | 175 | 203 | 229 | 255 | 281 | 307 | 335 | 368
323.15 K | 112 | 146 | 176 | 204 | 231 | 256 | 282 | 309 | 337 | 370
328.15 K | 113 | 147 | 177 | 206 | 232 | 258 | 283 | 310 | 339 | 371
333.15 K | 114 | 148 | 179 | 207 | 233 | 259 | 285 | 312 | 341 | 373
338.15 K | 114 | 149 | 180 | 208 | 235 | 261 | 286 | 313 | 342 | 375
343.15 K | 115 | 150 | 181 | 210 | 237 | 263 | 289 | 316 | 345 | 379
348.15 K | 116 | 151 | 183 | 211 | 238 | 264 | 290 | 318 | 347 | 381
353.15 K | 116 | 152 | 184 | 212 | 239 | 265 | 291 | 318 | 348 | 382
